Laboratory results from patent US8637252B2, “Methods and compositions for determining altered susceptibility of HIV-1 to anti-HIV drugs” (Monogram Biosciences, Inc., priority 2011, dated 2014).
Values joined by “and” are separate entries in the source; they are usually repeats but may differ in a detail not shown here. Equal entries are not always repeated.

Experiments:
[1] = test system: HIV-1 patient-derived test vectors with site-directed reverse transcriptase mutations; assay: phenotypic drug resistance test, site-directed reverse transcriptase mutants in patient backgrounds; type: cell-based
Method: In addition, using conventional technique, the T369I mutation was introduced into a resistance test vector comprising PR-RT segment derived from patient sample 62, which comprises mutations A62V, Q102K, K103N, K122E, D123N, C162S, D177E, 1178L, M184V, T200A, Q207E, T215Y, P243S, V245Q, A272P and R277K in reverse transcriptase. Among these mutations, K103N correlates with resistance to a number of NNRTIs, including NVP. This patient sample was tested for resistance to an NNRTI using the methods described above.
To further analyze the effects of N348I, T369I, and E399D on NNRTI resistance, an additional series of site directed mutants was constructed in non-wild-type backgrounds. In particular, site-directed mutants comprising the N348I, T369I, or E399D mutation were constructed in POL-containing test vectors obtained from three different patient samples. Results from these experiments are presented as FIG. 11.
To further analyze the effects of N348I, T369I, and E399D on AZT resistance, an additional series of site directed mutants was constructed in non-wild-type backgrounds. In particular, site-directed mutants comprising the N3481, T369I, or E399D mutation were constructed in POL-containing test vectors obtained from two different patient samples.

[2] = test system: HIV-1 (patient-derived POL segment); assay: phenotypic drug resistance test, resistance test vectors with patient-derived POL segment (entire pol gene), luciferase, 293 cells; type: cell-based
From the text: Patient-derived segment(s) corresponding to the entire pol gene, encoding HIV protease, reverse transcriptase (including RNAse H), and integrase (hereinafter “POL”), the portion of pol encoding amino acids 1-305 of reverse transcriptase (hereinafter “PR-RT”), the portion of pol encoding amino acids 319-440 of reverse transcriptase (including RNAse H), and integrase (hereinafter “RHIN”), were amplified by the reverse transcription-polymerase chain reaction method (RT-PCR) using viral RNA isolated from viral particles present in the plasma or serum of HIV-infected individuals as described below. The portion of pol encoding protease, amino acids 1-531 of reverse transcriptase (including RNase H) (hereinafter “PRRT-RH”), or the portion of pol encoding protease, reverse transcriptase (including RNAse H) and integrase (hereinafter “PRRT-RHIN”), were assembled from amplicons described above by standard recombinant DNA techniques involving a KpnI restriction site at amino acid 400 or a Pin A1 site at amino acid 315.
Virus was pelleted by centrifugation at 20,400×g for 60 min from plasma (typically, 1 ml) prepared from blood samples collected in evacuated tubes containing either EDTA, acid-citrate dextrose, or heparin as an anticoagulant. Virus particles were disrupted by resuspending the pellets in 200 [1.1 of lysis buffer (4 M guanidine thiocyanate, 0.1 M Tris HCl (pH 8.0), 0.5% sodium lauryl sarcosine, 1% dithiothreitol). RNA was extracted from viral lysates by using oligo(dT) linked to magnetic beads (Dynal, Oslo, Norway). Reverse transcription was performed with Superscript III (Invitrogen) at 50 degrees for 1 hour using primer 1.
From the resultant cDNA either POL or RHIN sequences were amplified using the Advantage High Fidelity PCR kit (BD Biosciences; Clontech). POL amplification products are made using forward Primer 3 containing an Apal site and reverse Primer 4 containing a Xho 1 site. RHIN amplification products are made using forward Primer 2 containing a P1NA1 site and reverse Primer 4 containing a Xho 1 site.
A retroviral vector designed to measure antiretroviral drug susceptibility was constructed by using an infectious molecular clone of HIV-1. The vector, referred to herein as an indicator gene viral vector (IGVV), is replication defective and contains a luciferase expression cassette inserted within a deleted region of the envelope (env) gene. The IGVV is described in U.S. Pat. No. 5,837,464 (International Publication Number WO 97/27319) which is hereby incorporated by reference in its entirety. This retroviral vector was further modified to allow insertion of either the entire pol gene (POL) or the portion of poi encoding amino acids 319-440 of reverse transcriptase, the RNase H portion of reverse transcriptase, and integrase (REIN) by engineering an Xho l restriction enzyme recognition site into vif. Prior to doing this, an Xho 1 site in nef was deleted. Resistance Test vectors (RTVs) were constructed by incorporating amplified POL or RHIN into the IGVV by using Apal and Xhol or PinAI and Xho 1 restriction sites respectively. RTVs were prepared as libraries (pools) in order to capture and preserve the pol or RHIN sequence heterogeneity of the virus in the patient. POL amplification products were digested with Apal and Xhol, purified by agarose gel electrophoresis, and ligated to ApaI- and Xhol-digested IGVV DNA. RHIN amplification products were digested with PinAI and Xho/, purified by agarose gel electrophoresis, and ligated to PinAI and Xhol-digested IGVV DNA. Ligation reactions were used to transform competent Escherichia coli (Invitrogen, Carlsbad, Calif.). An aliquot of each transformation was plated onto agar, and colony counts were used to estimate the number of patient-derived segments represented in each RTV library. RTV libraries that comprised less than 50 members are not considered representative of the patient virus. […]

[3] = Sample 47 (K103K/N, V106V/A, Y181Y/C, G190G/A)
[4] = Sample 58 (K103N, Y181Y/C, G190G/A)
[5] = Sample 62 (K103H, P225P/H, T369T/I)
[6] = Sample 90 (K103K/N, Y181C, G190A)

## CC(C)Nc1cccnc1N1CCN(C(=O)c2cc3cc(NS(C)(=O)=O)ccc3[nH]2)CC1 [DLV, delavirdine]
[1]; E399D mutation, patient 50 background
  change in resistance on addition of mutation: increased
[1]; E399D mutation, patient 58 or patient 62 background
  change in resistance on addition of mutation: not
[1]; N348I and T369I mutations, POL test vectors of patients 50, 58, 62
  change in resistance on addition of mutation: increased resistance
[2]; Sample 31 (K103N)
  fold change in IC50, pol: 28.0 fold
  pol/PR-RT ratio: 1.7
[2]; Sample 33 (K103S)
  fold change in IC50, pol: 5.7 fold
  pol/PR-RT ratio: 0.7
[2]; Sample 34
  fold change in IC50, pol: 0.4 fold
  pol/PR-RT ratio: 1.0
[2]; Sample 35 (K103H)
  fold change in IC50, pol: 5.4 fold
  pol/PR-RT ratio: 0.8
[2]; Sample 36 (K103K/W)
  fold change in IC50, pol: 1.9 fold
  pol/PR-RT ratio: 0.2
[2]; Sample 38 (K103N)
  fold change in IC50, pol: 66.0 fold
  pol/PR-RT ratio: 0.5
[2]; Sample 39 (T369A)
  fold change in IC50, pol: 1.2 fold
  pol/PR-RT ratio: 5.1
[2]; Sample 42 (G190G/A)
  fold change in IC50, pol: 0.2 fold
  pol/PR-RT ratio: 0.5
[2]; Sample 45
  fold change in IC50, pol: 0.1 fold
  pol/PR-RT ratio: 0.7
[2]; [3]
  fold change in IC50, pol: 5.4 fold
  pol/PR-RT ratio: 0.9
[2]; Sample 50 (K103N)
  fold change in IC50, pol: 65.4 fold
  pol/PR-RT ratio: 0.3
[2]; Sample 51
  fold change in IC50, pol: 0.3 fold
  pol/PR-RT ratio: 0.9
[2]; Sample 52
  fold change in IC50, pol: 2.7 fold
  pol/PR-RT ratio: 0.8
[2]; [4]
  fold change in IC50, pol: 250.0 fold
  pol/PR-RT ratio: 1.7
[2]; [5]
  fold change in IC50, pol: 140.0 fold and 140.00 fold
  pol/PR-RT ratio: 8.8
[2]; Sample 64 (T369T/A)
  fold change in IC50, pol: 0.3 fold
  pol/PR-RT ratio: 0.2
[2]; Sample 69
  fold change in IC50, pol: 1.8 fold
  pol/PR-RT ratio: 1.2
[2]; Sample 72
  fold change in IC50, pol: 1.2 fold
  pol/PR-RT ratio: 1.4
[2]; Sample 80 (K103K/N, Y181Y/C)
  fold change in IC50, pol: 22.0 fold
  pol/PR-RT ratio: 0.3
[2]; Sample 81 (K103N, P225H)
  fold change in IC50, pol: 9.5 fold
  pol/PR-RT ratio: 0.8
[2]; Sample 84
  fold change in IC50, pol: 0.5 fold
  pol/PR-RT ratio: 0.6
[2]; Sample 85
  fold change in IC50, pol: 69.0 fold
  pol/PR-RT ratio: 2.7
[2]; Sample 87
  fold change in IC50, pol: 0.7 fold
  pol/PR-RT ratio: 0.9
[2]; Sample 89 (L1001, K103N)
  fold change in IC50, pol: 250.0 fold
  pol/PR-RT ratio: 1.0
[2]; [6]
  fold change in IC50, pol: 4.8 fold
  pol/PR-RT ratio: 1.1
[2]; Sample 92
  fold change in IC50, pol: 0.8 fold
  pol/PR-RT ratio: 0.8
[2]; Sample 93
  fold change in IC50, pol: 0.2 fold
  pol/PR-RT ratio: 0.6
